This is an account of results in patent US20230149338A1, “DIAGNOSIS AND TREATMENT OF ADDICTION” (The Regents of the University of California, priority 2020, published 2023).

Common to all, as to format: in vivo, rat
For assay [1], the system named is Sprague-Dawley rats. The assay can be described thus: Mechanical nociceptive von Frey test, passive oxycodone injection model. On the procedure: (§1) The rats were subjected to microbiome depletion using a cocktail of non-absorbable antibiotics in their drinking water. Control rats were given regular drinking water. […] Withdrawal was precipitated at the end of the injection paradigm with a subcutaneous injection of naloxone (1 mg/kg) in the saline (SAL) group, withdrawal (WD) group, and antibiotic-treated withdrawal (WD+ABX) group. For the intoxication state, the rats were given a saline injection at the same time as the naloxone group. The OXY group included animals that were not treated with antibiotics in the intoxicated state, and the OXY+ABX group included animals that were treated with antibiotics in the intoxicated state. […] The rats were sacrificed and perfused 90 min after the naloxone injection in the WD, WD+ABX, and SAL groups and after 90 min following the saline injection (matched with the naloxone injection time point) in the OXY and OXY+ABX groups. Brains were then cryopreserved and stained for Fos expression.
Mechanical nociception, reflected by hindpaw withdrawal thresholds, was determined by an observer who was blind to the experimental groups using von Frey filaments that ranged from 3.63 to 281.838 g as previously reported (Dixon 1965, Kononoff et al. 2018). A test session began after 10 min of habituation to the testing environment immediately following the subcutaneous injection of naloxone (WD, WD+ABX, and SAL groups) or saline (OXY and OXY+ABX groups). […] The 50% paw withdrawal threshold was determined by the formula Xf+kδ, where Xf is the last von Frey filament applied, k is the Dixon value that corresponded to the response pattern, and […] is the mean difference between stimuli. Once the threshold was determined for the left hindpaw, the same testing procedure was repeated for the right hindpaw after 5 min. Paw withdrawal thresholds were recorded at baseline, during intoxication, and during precipitated withdrawal.

Assay [2] concerns Sprague-Dawley rats. The assay can be described thus: Withdrawal score after naloxone-precipitated withdrawal. On the procedure:
as §1
To precipitate withdrawal, the rats were subcutaneously injected with naloxone and then placed in a Plexiglas observation chamber.
Withdrawal symptoms were categorized using a scale that was modified from (Gellert et al. 1978) and (Cicero et al. 2002). Graded signs of withdrawal were scored as the following: wet dog shakes (1 or 2 shakes=2; 3 or 4 shakes=3; […] shakes=4) and escape attempts (2-4 attempts=1; 5-9 attempts=2; ≥10 attempts=3). The following behaviors were measured per instance: abnormal posture/writhing, teeth chattering, ptosis (drooping eyelids), diarrhea, profuse salivation, urination, swallowing movements, and chromodacyorrhea (red tears). The total withdrawal score was calculated as the sum of all of the individual withdrawal scores. Immediately after withdrawal testing, all of the rats were returned to standard cages and given unrestricted access to food and water.

The subject of another assay is microbiome. Briefly: 16S RNA sequencing of feces: alpha diversity and phyla. To be noted: post-treatment. The method, then:
(§2) At each time point, approximately two fecal pellets were harvested and put directly into a cryovial, which was placed on powered dry ice. The pellets were then stored at −80° C. until processing for sequencing. At the time of DNA extraction, feces were thawed and extracted with the Qiagen DNeasy powersoil kit. The samples are then amplified by PCR in triplicate and then pooled. The 16S V4 gene was amplified using universal primers ([…]). Each sample was normalized to 240 ng per sample and purified. After purification, the A260/A280 ratio of the final pool was recorded to ensure purity, with a tolerance range of 1.8-2.0. The barcoded amplicons from all of the samples were normalized, pooled to construct the sequencing library, and sequenced using an Illumina MiSeq sequencer. The sequencing primers were the following: […]
(§3) After sequencing, the raw files were prepared, filtered for quality, and demultiplexed. Operational taxonomic units (OTUs) were selected using open-reference OUT picking based on 97% sequence similarity to the Greengenes database. Taxonomy assignment and rarefaction were performed using Qiita with 15,000 reads per sample (Gonzalez et al. 2018). The alpha diversity was measured using both the Shannon diversity index and Chao1 index and compared between baseline and treatment conditions. […]

For another assay, the system named is Bacteroidetes. The assay can be described thus: 16S RNA sequencing of feces: Bacteroidetes abundance. On the procedure:
as §2, §3

For another assay, the system named is Firmicutes. Briefly: 16S RNA sequencing of feces: Firmicutes abundance. On the procedure:
as §2, §3

The next assay concerns Fos+ neurons. Briefly: Fos immunohistochemistry, quantification of Fos+ neuronal ensembles. The method, then: Two hours later, the rats were injected with either saline (OXY and OXY+ABX groups) or 1 mg/kg naloxone (WD, WD+ABX, and SAL groups) to maintain intoxication or precipitate withdrawal, respectively. Brains were collected 90 min after the injection of naloxone or saline to produce both intoxicated and withdrawal groups. The rats were deeply anesthetized and perfused with 100 mL of phosphate-buffered saline (PBS) followed by 100 mL of 4% paraformaldehyde (PFA). Brains were postfixed in 4% PFA overnight and transferred to 30% sucrose in a PBS/0.1% azide solution at 4° C. for 2 days. Brains were frozen in powdered dry ice for 15-30 s and then sectioned coronally at 40 μm thickness throughout the brain using a cryostat. Representative sections were quantified from the following regions at the following coordinates according to the (Paxinos 2007) rat brain atlas: PVT (bregma −3.36), LHb (bregma −3.36), BLA (bregma −3.12), CeA (bregma −3.12), PAG (bregma −5.76), anterior agranular insula bregma (+3.00), BNST (bregma 0.00), and LC (bregma −9.16).
The sections were washed in PBS for 10 min three times and then incubated in 1% H2O2/PBS for 20 min to quench endogenous peroxidase activity. The sections were then rinsed for 10 min three times in PBS and incubated in blocking solution (PBS+0.3% TritonX-100, 1 mg/mL bovine serum albumin, and 5% normal donkey serum) for 1 h. The sections were then incubated for 24 h at room temperature with rabbit monoclonal anti-Fos antibody (Cell Signaling Technologies, catalog no. 2250, RRID: AB_2247211) diluted 1:1000 in PBS/0.5% Tween-20 and 5% normal donkey serum. Following incubation with the primary antibody, the sections were washed for 10 min three times in PBS and incubated for 2 h in undiluted rabbit ImmPress horseradish peroxidase reagent (Vector Laboratories, catalog no. MP-7451, RRID: 2631198).
The sections were then washed in PBS for 10 min three times and then developed for 6 min in Vector peroxidase 3,3′-diaminobenzidine (DAB) substrate (Vector Laboratories, catalog no. SK-4100, RRID: 2336382) enhanced with nickel chloride. Following rinses in PBS for 10 min three times, the sections were mounted on Fisher Super Frost Plus slides, air dried, and coverslipped with PVA-DABCO (Sigma Aldrich, catalog no. 10981). Following coverslipping, images were acquired using a Keyence BZX700 fluorescent microscope and analyzed using Fiji software.
Quantitative analysis to obtain unbiased estimates of the total number of Fos+positive cell bodies was performed using Fiji software with the Analyze Particles module (Schindelin et al. 2012). Slides were imaged on a Keyence BZX700 slide scanner and stitched at 2[…] magnification. Three sections were bilaterally analyzed for each rat and then averaged per animal (counted as n=1). A total of 4-6 animals of each sex per group were analyzed. Cell numbers were normalized to the area of the region of interest.

[3] abbreviates: oxycodone + naloxone withdrawal vs SAL and OXY groups.
Where [4] appears, read: oxycodone + naloxone withdrawal vs SAL group.
Setting [5] is: withdrawal compared with the control group.

Entries after “also recorded” stand apart in the source; their conditions may differ.

`COc1ccc2c3c1O[C@H]1C(=O)CC[C@@]4(O)[C@@H](C2)N(C)CC[C@]314` [oxycodone, Oxycodone]: the “decrease in pain thresholds” value in the assay with Sprague-Dawley rats [1] (WD and WD+ABX groups, naloxone-precipitated withdrawal) is recorded as 64%. The “von Frey pain threshold during oxycodone intoxication” value in the assay with Sprague-Dawley rats [1] (oxycodone 2 mg/kg s.c. every 12 h, intoxicated animals vs saline, withdrawal groups and baseline) was “significantly higher von Frey scores; also recorded: higher pain thresholds”. Besides, the “von Frey pain threshold during withdrawal” value with Sprague-Dawley rats [1] (oxycodone-dependent rats, naloxone 1 mg/kg precipitated withdrawal, vs saline, intoxication, baseline) is on record as “significantly lower von Frey scores; also recorded: lower pain thresholds”. Further, in the assay with Sprague-Dawley rats [2] (WD and WD+ABX groups), the “increase in withdrawal signs” value is given as 1420%. In addition, the “withdrawal score, intoxicated vs saline animals” value in the assay on Sprague-Dawley rats [2] (oxycodone intoxication) is listed as “No significant difference in withdrawal scores”. Further, the “total withdrawal score during withdrawal” value in the assay on Sprague-Dawley rats [2] (oxycodone-dependent rats, naloxone-precipitated withdrawal, vs saline and intoxicated animals) is reported as “significantly higher withdrawal scores”. Besides, in the assay on microbiome, the “alpha diversity, Chao1 test, OXY vs SAL group” value is reported as “no difference in alpha diversity”. Also, the “change in Bacteroidetes after treatment” value in the assay on Bacteroidetes (OXY group or OXY+ABX group compared with the matched SAL group) is listed as −19.01%. Also, in the assay on Bacteroidetes (post-treatment, OXY+ABX vs water and OXY groups, OXY vs SAL), the “Bacteroidetes at the phylum level, group comparison” value was “No difference in Bacteroidetes”. In addition, the “change in Firmicutes after treatment” value in the assay on Firmicutes (OXY group or OXY+ABX group compared with the matched saline group) turned out to be 38.5%. Besides, the “Firmicutes at the phylum level, group comparison” value with Firmicutes (post-treatment, OXY+ABX vs SAL and OXY groups, OXY vs SAL) is listed as “No difference in Firmicutes”. Moreover, the “number of Fos+ neurons, BLA, WD group” value in the assay with Fos+ neurons (oxycodone + naloxone withdrawal vs OXY and SAL groups) was “significant decrease in Fos+ neurons compared with the OXY group but no difference from the SAL group”. For the same molecule, in the assay with Fos+ neurons (setting [3]), the “number of Fos+ neurons, BNST, WD group” value was “significant increase in the number of Fos+ neurons; also recorded: significant decrease in the number of Fos+neurons compared with the WD and WD+ABX groups”; the “number of Fos+ neurons, LHb, WD group” value is on record as “significant increase in the number of Fos+neurons”; the “number of Fos+ neurons, PAG, WD group” value is “significant increase in Fos+ neurons”; the “number of Fos+ neurons, PVT, WD group” value was “significant increase in Fos+ positive neurons; also recorded: significant decrease in the number of Fos+ neurons in the SAL group compared with the WD and WD+ABX groups”. Further, the “number of Fos+ neurons, anterior insula, WD group” value in the assay on Fos+ neurons (setting [3]) was “significant increase in the number of Fos+ neurons”. Besides, in the assay on Fos+ neurons (setting [4]), the “number of Fos+ neurons, CeA, WD group” value is “significant difference between the SAL and WD groups”; the “number of Fos+ neurons, LC, WD group” value is “significant difference between the SAL group and the WD and WD+ABX groups”. Also, in the assay with Fos+ neurons (setting [5]), the “increase in the number of Fos+ neurons, LC” value was determined as 475%; the “increase in the number of Fos+ neurons, LHb” value stood at 712%; the “increase in the number of Fos+ neurons, PVT” value turned out to be 289%. Moreover, the “increase in the number of Fos+ neurons, lateral BNST” value in the assay with Fos+ neurons (withdrawal, antibiotic-treated animals compared with the control group) is 1272%.
